{
  "source": "paper PMC10182041",
  "about": "“A first-in-class inhibitor of Hsp110 molecular chaperones of pathogenic fungi” (Nature Communications, 2023)",
  "key": {"[1]": {"molecular_target": "Ssa1 (Saccharomyces cerevisiae, UniProt P10591)", "sequence (P10591 2-642)": "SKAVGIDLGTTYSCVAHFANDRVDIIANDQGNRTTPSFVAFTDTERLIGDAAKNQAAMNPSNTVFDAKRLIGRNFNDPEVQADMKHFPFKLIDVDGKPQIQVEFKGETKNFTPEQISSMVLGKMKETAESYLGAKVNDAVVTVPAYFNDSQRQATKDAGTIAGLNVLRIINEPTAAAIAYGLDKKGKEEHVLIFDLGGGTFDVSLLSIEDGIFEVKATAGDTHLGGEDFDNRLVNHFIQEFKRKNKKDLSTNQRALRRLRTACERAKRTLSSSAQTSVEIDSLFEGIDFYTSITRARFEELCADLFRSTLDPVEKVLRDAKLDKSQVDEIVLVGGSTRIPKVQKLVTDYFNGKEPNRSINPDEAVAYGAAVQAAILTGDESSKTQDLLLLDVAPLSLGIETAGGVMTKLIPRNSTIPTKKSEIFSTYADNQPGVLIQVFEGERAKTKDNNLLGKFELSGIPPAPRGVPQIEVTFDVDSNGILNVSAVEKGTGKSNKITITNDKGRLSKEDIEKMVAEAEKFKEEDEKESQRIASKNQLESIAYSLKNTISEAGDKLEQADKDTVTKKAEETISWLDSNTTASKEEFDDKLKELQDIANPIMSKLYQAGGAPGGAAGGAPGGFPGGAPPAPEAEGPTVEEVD", "test": "displacement of pre-bound ATP-FAM, fluorescence polarization", "type": "binding"}, "[2]": {"molecular_target": "Msi3 (Candida albicans, UniProt Q96VB9, I164D)", "sequence (Q96VB9 whole entry I164D)": "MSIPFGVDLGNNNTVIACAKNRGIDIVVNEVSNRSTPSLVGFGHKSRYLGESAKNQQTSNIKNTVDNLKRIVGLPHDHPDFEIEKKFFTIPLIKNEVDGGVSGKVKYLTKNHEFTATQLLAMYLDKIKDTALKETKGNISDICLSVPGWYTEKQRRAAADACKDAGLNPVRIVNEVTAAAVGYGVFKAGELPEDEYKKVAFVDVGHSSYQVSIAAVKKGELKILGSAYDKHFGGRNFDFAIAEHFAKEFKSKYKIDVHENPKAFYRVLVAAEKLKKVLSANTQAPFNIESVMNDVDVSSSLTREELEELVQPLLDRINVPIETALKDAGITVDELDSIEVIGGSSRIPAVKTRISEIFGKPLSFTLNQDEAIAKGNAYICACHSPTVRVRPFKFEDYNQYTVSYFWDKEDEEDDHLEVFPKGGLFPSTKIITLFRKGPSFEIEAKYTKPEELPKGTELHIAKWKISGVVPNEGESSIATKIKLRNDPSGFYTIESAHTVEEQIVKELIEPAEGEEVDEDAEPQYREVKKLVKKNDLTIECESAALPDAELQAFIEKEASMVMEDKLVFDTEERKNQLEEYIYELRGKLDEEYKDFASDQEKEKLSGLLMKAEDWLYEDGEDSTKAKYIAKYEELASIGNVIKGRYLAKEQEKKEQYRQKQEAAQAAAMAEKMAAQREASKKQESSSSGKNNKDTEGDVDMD", "test": "luciferase aggregation (holdase) assay at OD320 with purified mutant", "type": "biochemical"}, "[3]": {"molecular_target": "T1, Sse1 (Saccharomyces cerevisiae, UniProt P32589)", "T1 sequence (P32589 1-693)": "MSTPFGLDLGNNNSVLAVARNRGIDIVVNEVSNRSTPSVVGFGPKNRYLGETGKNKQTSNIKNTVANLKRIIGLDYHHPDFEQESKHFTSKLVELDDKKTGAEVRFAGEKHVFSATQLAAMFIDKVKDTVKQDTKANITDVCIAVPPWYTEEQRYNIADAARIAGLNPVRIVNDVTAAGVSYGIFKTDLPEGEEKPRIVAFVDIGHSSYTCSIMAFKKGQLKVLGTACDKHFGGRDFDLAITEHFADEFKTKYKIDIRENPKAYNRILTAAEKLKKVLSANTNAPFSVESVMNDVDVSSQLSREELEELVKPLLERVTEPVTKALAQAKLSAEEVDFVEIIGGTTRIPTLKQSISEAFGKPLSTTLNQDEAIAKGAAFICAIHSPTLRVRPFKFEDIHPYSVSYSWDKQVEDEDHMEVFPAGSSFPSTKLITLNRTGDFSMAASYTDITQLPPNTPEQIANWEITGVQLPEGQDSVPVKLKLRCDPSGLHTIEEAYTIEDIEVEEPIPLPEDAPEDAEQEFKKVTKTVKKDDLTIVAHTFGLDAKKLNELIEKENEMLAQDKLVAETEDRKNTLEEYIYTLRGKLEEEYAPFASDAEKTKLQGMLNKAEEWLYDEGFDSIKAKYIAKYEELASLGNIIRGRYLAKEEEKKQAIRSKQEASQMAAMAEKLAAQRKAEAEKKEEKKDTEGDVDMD", "test": "reduction of ATP-FAM binding to purified Sse1, fluorescence polarization", "type": "biochemical"}, "[4]": {"molecular_target": "Msi3 (Candida albicans, UniProt Q96VB9)", "sequence (Q96VB9 whole entry)": "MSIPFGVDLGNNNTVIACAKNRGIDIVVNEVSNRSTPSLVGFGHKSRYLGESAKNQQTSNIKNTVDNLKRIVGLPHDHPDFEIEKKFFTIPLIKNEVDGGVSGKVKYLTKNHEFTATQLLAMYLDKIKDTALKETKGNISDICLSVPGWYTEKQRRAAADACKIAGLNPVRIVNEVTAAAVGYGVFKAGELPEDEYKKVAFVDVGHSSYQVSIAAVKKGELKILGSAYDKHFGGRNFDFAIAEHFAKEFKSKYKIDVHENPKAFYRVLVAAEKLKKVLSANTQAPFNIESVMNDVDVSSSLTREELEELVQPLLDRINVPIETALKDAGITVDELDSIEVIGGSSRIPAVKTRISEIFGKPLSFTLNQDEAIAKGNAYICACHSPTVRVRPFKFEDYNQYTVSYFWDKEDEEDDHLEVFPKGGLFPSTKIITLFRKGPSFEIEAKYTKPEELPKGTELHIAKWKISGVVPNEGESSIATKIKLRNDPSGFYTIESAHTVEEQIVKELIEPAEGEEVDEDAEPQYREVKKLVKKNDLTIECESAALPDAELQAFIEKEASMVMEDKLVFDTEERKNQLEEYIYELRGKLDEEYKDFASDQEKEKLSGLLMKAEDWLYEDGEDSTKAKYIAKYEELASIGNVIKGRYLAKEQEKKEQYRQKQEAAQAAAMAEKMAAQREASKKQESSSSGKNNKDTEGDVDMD", "test": "IC50 from the luciferase holdase assay", "type": "biochemical"}},
  "data": [
    {"smiles": "Nc1ncnc2c1ncn2[C@@H]1O[C@H](COP(=O)(O)OP(=O)(O)OP(=O)(O)O)[C@@H](O)[C@H]1O", "note": "[ATP]", "values": [
      {"measurement": "displacement of pre-bound ATP-FAM, fluorescence polarization", "setting": "[1]", "result": "suggesting that the pre-bound ATP-FAM was slowly replaced by the regular ATP"}
    ]},
    {"smiles": "Cc1cccc(COc2nc3c(cc2-c2nc(N)cc(N)n2)c(C)nn3-c2ccccc2)c1", "note": "[2H, HLQ2H]", "values": [
      {"measurement": "luciferase aggregation (holdase) assay at OD320 with purified mutant", "setting": "[2]", "result": "A similar inhibition of holdase activity was observed for this mutant when treated with 2H (Fig. S6a)"},
      {"measurement": "reduction of ATP-FAM binding to purified Sse1, fluorescence polarization", "setting": "[3]", "result": "2H showed a similar inhibition on Sse1 (Fig. S1a), the major Hsp110 from S. cerevisiae"},
      {"measurement": "IC50", "setting": "[4]", "result": "5.02 ± 0.35", "unit": "µM"}
    ]}
  ]
}
